Reference: the supplement of paper PMC10307832

Key:
Test in all cases: relative viability (nuclei count vs DMSO), 5 days (fraction); higher = more cells survive
[1] = tested on: LXF-289
Outline: (§1)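 Five library-drug doses in √10 steps were combined with a fixed anchor-drug dose, or a single drug was given alone, by pin tool to lung cancer cell lines in 1536-well plates the day after seeding. Nuclei were stained and counted after 5 days. Relative viability is the nuclei count in treated wells over that in vehicle wells, taken as the median of duplicate plates.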

[2] = tested on: HARA
Outline: as §1

[3] = tested on: H3255
Outline: as §1

[4] = tested on: NCI-H2405
Outline: as §1

[5] = tested on: NCI-H1437
Outline: as §1

[6] = tested on: NCI-H23
Outline: as §1

[7] = tested on: NCI-H2085
Outline: as §1

[8] = tested on: BEN
Outline: as §1

[9] = tested on: COR-L 105
Outline: as §1

[10] = tested on: HCC-827
Outline: as §1

[11] = tested on: NCI-H2228
Outline: as §1

[12] = tested on: LC-2-ad
Outline: as §1

[13] = tested on: NCI-H322M
Outline: as §1

[14] = tested on: CAL-12T
Outline: as §1

[15] = tested on: LU99A
Outline: as §1

[16] = tested on: NCI-H1792
Outline: as §1

[17] = tested on: 201T
Outline: as §1

[18] = tested on: UMC-11
Outline: as §1

[19] = tested on: RERF-LC-KJ
Outline: as §1

[20] = tested on: HCC-15
Outline: as §1

[21] = tested on: NCI-H1651
Outline: as §1

[22] = tested on: LCLC-103H
Outline: as §1

[23] = tested on: LK-2
Outline: as §1

## Cc1cnc(-c2cnc(NCCNc3ccc(C#N)cn3)nc2-c2ccc(Cl)cc2Cl)[nH]1 + Nc1nc2[nH]cc(CCc3ccc(C(=O)N[C@@H](CCC(=O)O)C(=O)O)cc3)c2c(=O)[nH]1 [Pemetrexed] (partner 0.2 µM)
[1]; first compound 0.08 µM
  relative viability: 0.91
[1]; first compound 0.253 µM
  relative viability: 0.818
[1]; first compound 0.8 µM
  relative viability: 0.829
[1]; first compound 2.53 µM
  relative viability: 0.962
[2]; first compound 0.08 µM
  relative viability: 0.277
[2]; first compound 0.253 µM
  relative viability: 0.207
[2]; first compound 0.8 µM
  relative viability: 0.255
[2]; first compound 2.53 µM
  relative viability: 0.235
[3]; first compound 0.08 µM
  relative viability: 0.555
[3]; first compound 0.253 µM
  relative viability: 0.587
[3]; first compound 0.8 µM
  relative viability: 0.533
[3]; first compound 2.53 µM
  relative viability: 0.508
[4]; first compound 0.08 µM
  relative viability: 1.09
[4]; first compound 0.253 µM
  relative viability: 1.06
[4]; first compound 0.8 µM
  relative viability: 1.04
[4]; first compound 2.53 µM
  relative viability: 0.468
[5]; first compound 0.08 µM
  relative viability: 0.3
[5]; first compound 0.253 µM
  relative viability: 0.328
[5]; first compound 0.8 µM
  relative viability: 0.268
[5]; first compound 2.53 µM
  relative viability: 0.269
[6]; first compound 0.08 µM
  relative viability: 0.667
[6]; first compound 0.253 µM
  relative viability: 0.634
[6]; first compound 0.8 µM
  relative viability: 0.486
[6]; first compound 2.53 µM
  relative viability: 0.438
[7]; first compound 0.08 µM
  relative viability: 1.01
[7]; first compound 0.253 µM
  relative viability: 0.852
[7]; first compound 0.8 µM
  relative viability: 0.885
[7]; first compound 2.53 µM
  relative viability: 0.955
[8]; first compound 0.08 µM
  relative viability: 0.787
[8]; first compound 0.253 µM
  relative viability: 0.751
[8]; first compound 0.8 µM
  relative viability: 0.771
[8]; first compound 2.53 µM
  relative viability: 0.802
[9]; first compound 0.08 µM
  relative viability: 1.25
[9]; first compound 0.253 µM
  relative viability: 1.06
[9]; first compound 0.8 µM
  relative viability: 0.903
[9]; first compound 2.53 µM
  relative viability: 0.832
[10]; first compound 0.08 µM
  relative viability: 0.27
[10]; first compound 0.253 µM
  relative viability: 0.267
[10]; first compound 0.8 µM
  relative viability: 0.245
[10]; first compound 2.53 µM
  relative viability: 0.269
[11]; first compound 0.08 µM
  relative viability: 0.36
[11]; first compound 0.8 µM
  relative viability: 0.386
[11]; first compound 2.53 µM
  relative viability: 0.288
[12]; first compound 0.08 µM
  relative viability: 0.276
[12]; first compound 0.8 µM
  relative viability: 0.252
[12]; first compound 2.53 µM
  relative viability: 0.247
[13]; first compound 0.08 µM
  relative viability: 0.603
[13]; first compound 0.253 µM
  relative viability: 0.584
[13]; first compound 0.8 µM
  relative viability: 0.548
[13]; first compound 2.53 µM
  relative viability: 0.562
[14]; first compound 0.08 µM
  relative viability: 1.19
[14]; first compound 0.253 µM
  relative viability: 1.04
[14]; first compound 0.8 µM
  relative viability: 1.17
[14]; first compound 2.53 µM
  relative viability: 0.919
[15]; first compound 0.08 µM
  relative viability: 0.177
[15]; first compound 0.253 µM
  relative viability: 0.201
[15]; first compound 0.8 µM
  relative viability: 0.191
[15]; first compound 2.53 µM
  relative viability: 0.198
[16]; first compound 0.08 µM
  relative viability: 0.946
[16]; first compound 0.253 µM
  relative viability: 0.728
[16]; first compound 0.8 µM
  relative viability: 0.775
[16]; first compound 2.53 µM
  relative viability: 0.724
[17]; first compound 0.08 µM
  relative viability: 0.316
[17]; first compound 0.8 µM
  relative viability: 0.345
[17]; first compound 2.53 µM
  relative viability: 0.301
[18]; first compound 0.08 µM
  relative viability: 0.867
[18]; first compound 0.253 µM
  relative viability: 0.772
[18]; first compound 0.8 µM
  relative viability: 0.822
[18]; first compound 2.53 µM
  relative viability: 0.735
[19]; first compound 0.08 µM
  relative viability: 0.496
[19]; first compound 0.253 µM
  relative viability: 0.458
[19]; first compound 0.8 µM
  relative viability: 0.4
[19]; first compound 2.53 µM
  relative viability: 0.424
[20]; first compound 0.08 µM
  relative viability: 0.207
[20]; first compound 0.253 µM
  relative viability: 0.219
[20]; first compound 0.8 µM
  relative viability: 0.216
[20]; first compound 2.53 µM
  relative viability: 0.194
[21]; first compound 0.08 µM
  relative viability: 0.574
[21]; first compound 0.253 µM
  relative viability: 0.493
[21]; first compound 0.8 µM
  relative viability: 0.528
[21]; first compound 2.53 µM
  relative viability: 0.537
[22]; first compound 0.08 µM
  relative viability: 0.49
[22]; first compound 0.253 µM
  relative viability: 0.43
[22]; first compound 0.8 µM
  relative viability: 0.453
[22]; first compound 2.53 µM
  relative viability: 0.418
[23]; first compound 0.08 µM
  relative viability: 0.242
[23]; first compound 0.253 µM
  relative viability: 0.252
[23]; first compound 2.53 µM
  relative viability: 0.253
